Results published in BindingDB's records for doi:10.1021/jm950717a (Bristol-Myers Squibb, 1996).

biological target: T1, Dimer of Gag-Pol polyprotein [489-587] (Human immunodeficiency virus 1, UniProt P12497); assay: Protease Inhibition Assay; details: pH 5.5; 37 °C
T1 construct: 489-587
Procedure: IC50 values are determined by inhibition of the cleavage of the peptidic substrate [V-S-Q-N-(beta-naphthylalanine)-P-I-V]. The IC50 value represents the concentration of inhibitor required to inhibit cleavage of substrate by 50%. The assay is performed by addition of purified enzyme to a mixture of inhibitor and the above substrate at pH 5.5. The reaction medium is incubated for 30 min at 37 °C followed by quenching with H3-PO4 and then analyzed by reverse phase HPLC UV (220 nm) detection.

`CC(C)(C)OC(=O)N[C@@H](Cc1ccccc1)[C@H](O)CNC[C@@H](O)[C@H](Cc1ccc(OCC(O)c2cccnc2)cc1)NC(=O)OC(C)(C)C` (stereo partly drawn) [[1S-[1R*,2S*(2S*,3R*)]]-[3-[[3-[[(1,1-Dimethylethoxy)-carbonyl]amino]-2-hydroxy-4-[4-[2-hydroxy-2-(3-pyridinyl)ethoxy]phenyl]butyl]amino]-2-hydroxy-1-] and `CC(C)(C)OC(=O)N[C@@H](Cc1ccccc1)[C@H](O)CNC[C@@H](O)[C@H](Cc1ccc(OCC(=O)N2CCOCC2)cc1)NC(=O)OC(C)(C)C` [tert-butyl N-[(2S,3R)-4-{[(2R,3S)-3-{[(tert-butoxy)carbonyl]amino}-2-hydroxy-4-{4-[2-(morpholin-4-yl)-2-oxoethoxy]phenyl}butyl]amino}-3-hydroxy-1-phenylbutan-2-yl]carbamate] are within 1.5-fold of each other in IC50: 110 nM for the first, 100 nM for the second.

In the case of `CC(C)(C)OC(=O)N[C@@H](Cc1ccccc1)[C@H](O)CNC[C@@H](O)[C@H](Cc1ccc(OCCN2CCOCC2)cc1)NC(=O)OC(C)(C)C` [tert-butyl N-[(2S,3R)-4-{[(2R,3S)-3-{[(tert-butoxy)carbonyl]amino}-2-hydroxy-4-{4-[2-(morpholin-4-yl)ethoxy]phenyl}butyl]amino}-3-hydroxy-1-phenylbutan-2-yl]carbamate], the IC50 is reported as 100 nM.
